How the values were obtained:
[1] = molecular target: T1, LHRH rat pituitary receptor (Rattus norvegicus, UniProt P30969); assay: LHRH rat pituitary receptor binding (pKI); conditions: negative logarithm of the equilibrium dissociation constants; for Ki: Table 1, read-out: receptor binding affinity (pKI) (converted)
T1 construct: from tissue; host or cells: rat pituitary
T1 sequence (P30969 1-327): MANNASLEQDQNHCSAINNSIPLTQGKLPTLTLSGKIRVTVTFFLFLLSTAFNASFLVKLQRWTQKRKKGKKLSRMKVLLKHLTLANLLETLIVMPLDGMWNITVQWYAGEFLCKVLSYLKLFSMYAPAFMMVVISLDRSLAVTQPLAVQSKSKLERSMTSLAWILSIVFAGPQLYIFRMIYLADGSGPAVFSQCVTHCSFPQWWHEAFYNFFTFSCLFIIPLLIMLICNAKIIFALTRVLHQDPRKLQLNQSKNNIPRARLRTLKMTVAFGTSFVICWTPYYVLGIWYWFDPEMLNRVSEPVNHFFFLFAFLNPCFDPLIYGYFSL
Procedure: (§1) Representative compounds of the present invention were evaluated in in vitro tests for LHRH rat pituitary receptor binding (pKI) and for LH inhibition from rat pituitary cells for antagonist potency (pA2). The tests employed the methods detailed in F. Haviv, et al. J. Med. Chem., 32: 2340-2344 (1989). The receptor binding affinity (pKI) is the negative logarithm of the equilibrium dissociation constants.

[2] = molecular target: T2, rat pituitary cells (Rattus norvegicus, UniProt P30969); assay: LH inhibition from rat pituitary cells, antagonist potency (pA2); assay type: cell-based; conditions: negative log of antagonist concentration shifting the leuprolide response curve to two-fold higher concentration, Table 2
T2 construct: endogenous in cells; host or cells: rat pituitary cells
T2 sequence (P30969 1-327): T1 sequence (P30969 1-327)
Procedure: as §1
The pA2 value is the negative logarithm of the concentration of antagonist which shifts the response curve produced by the agonist leuprolide to two-fold higher concentration. Leuprolide is the LHRH agonist having the structure pyro-Glu^1 -His^2 -Trp^3 -Ser^4 -Tyr^5 -D-Leu^6 -Leu^7 -Arg^8 -Pro^9 -NHEt and is disclosed and claimed in U.S. Pat. No. 4,005,063. Typically pA2 values of 7.0 or greater are indicative of good LHRH antagonist potency.

| SMILES | Ki [1] [nM] | Kb [2] [nM] | receptor binding affinity (pKI) ([1]; Table 1) | pA2 [2] |
| --- | --- | --- | --- | --- |
| CCCN(C)[C@H]1C[C@@H](C)O[C@@H](O[C@@H]2[C@@H](C)[C@H](O[C@H]3C[C@@](C)(OC)[C@@H](O)[C@H](C)O3)[C@@H](C)C(=O)O[C@H](CC)[C@@]3(C)OC(=O)N(CCc4ccc(Cl)c(F)c4)[C@@H]3[C@@H](C)C(=O)[C@H](C)C[C@@]2(C)OC)[C@@H]1O [Example 16, 3'-N-Desmethyl-3'-N-n-propyl-11-deoxy-11-[carboxy-(4-chloro-3-fluorophenethylamino)]-6-O-methyl-erythromycin A 11,12-(cyclic carbamate)] | 3.98 | 32.4 |  |  |
| CC[C@H]1OC(=O)[C@H](C)[C@@H](O[C@H]2C[C@@](C)(OC)[C@@H](O)[C@H](C)O2)[C@H](C)[C@@H](O[C@@H]2O[C@H](C)C[C@H](N(C)C3CCC3)[C@H]2O)[C@](C)(OC)C[C@@H](C)C(=O)[C@H](C)[C@H]2N(CCc3ccc(Cl)cc3)C(=O)O[C@]12C [Example 20] |  |  | 8.49 | 7.53 |
| CC[C@H]1OC(=O)[C@H](C)[C@@H](O[C@H]2C[C@@](C)(OC)[C@@H](O)[C@H](C)O2)[C@H](C)[C@@H](O[C@@H]2O[C@H](C)C[C@H](N(C)CC)[C@H]2O)[C@](C)(OC)C[C@@H](C)C(=O)[C@H](C)[C@H]2N(CCc3ccc(Cl)cc3)C(=O)O[C@]12C [Example 21, 3'-N-Desmethyl-3'-N-ethyl-11-deoxy-11-[carboxy-(4-chlorophenethylamino)]-6-O-methyl-erythromycin A 11,12-(cyclic carbamate)] | 6.17 | 55 |  |  |
| CC[C@H]1OC(=O)[C@H](C)[C@@H](O[C@H]2C[C@@](C)(OC)[C@@H](O)[C@H](C)O2)[C@H](C)[C@@H](O[C@@H]2O[C@H](C)C[C@H](N(C)C(C)C)[C@H]2O)[C@](C)(OC)C[C@@H](C)C(=O)[C@H](C)[C@H]2N(CCc3ccc(Cl)cc3)C(=O)O[C@]12C [Example 22, 3'-N-Desmethyl-3'-N-isopropyl-11-deoxy-11-[carboxy-(4-chlorophenethylamino)]-6-O-methyl-erythromycin A 11,12-(cyclic carbamate)] | 4.47 | 30.2 |  |  |
| CC[C@H]1OC(=O)[C@H](C)[C@@H](O[C@H]2C[C@@](C)(OC)[C@@H](O)[C@H](C)O2)[C@H](C)[C@@H](O[C@@H]2O[C@H](C)C[C@H](N(C)C3CCCC3)[C@H]2O)[C@](C)(OC)C[C@@H](C)C(=O)[C@H](C)[C@H]2N(CCc3ccc(Cl)cc3)C(=O)O[C@]12C [Example 23, 3'-N-Desmethyl-3'-N-cyclopentyl-11-deoxy-11-[carboxy-(4-chlorophenethylamino)]-6-O-methyl-erythromycin A 11,12-(cyclic carbamate)] | 6.76 | 50.1 |  |  |

Results, then the molecule that gave them:

| Ki [1] [nM] | Kb [2] [nM] | receptor binding affinity (pKI) ([1]; Table 1) | pA2 [2] | SMILES |
| --- | --- | --- | --- | --- |
| 4.17 | 37.2 |  |  | CCCN(C)[C@H]1C[C@@H](C)O[C@@H](O[C@@H]2[C@@H](C)[C@H](O[C@H]3C[C@@](C)(OC)[C@@H](O)[C@H](C)O3)[C@@H](C)C(=O)O[C@H](CC)[C@@]3(C)OC(=O)N(CCc4cccc(Cl)c4)[C@@H]3[C@@H](C)C(=O)[C@H](C)C[C@@]2(C)OC)[C@@H]1O [Example 25, 3'-N-Desmethyl-3'-N-n-propyl-11-deoxy-11-[carboxy-(3-chlorophenethylamino)]-6-O-methyl-erythromycin A 11,12-(cyclic carbamate)] |
| 1.48 | 2.19 |  |  | CC[C@H]1OC(=O)[C@H](C)[C@@H](O[C@H]2C[C@@](C)(OC)[C@@H](O)[C@H](C)O2)[C@H](C)[C@@H](O[C@@H]2O[C@H](C)C[C@H](N(C)C3CCCC3)[C@H]2O)[C@](C)(OC)C[C@@H](C)C(=O)[C@H](C)[C@H]2N(CCc3ccc(F)c(Cl)c3)C(=O)O[C@]12C [Example 26, 3'-N-Desmethyl-3'-N-cyclopentyl-11-deoxy-11-[carboxy-(3-chloro-4-fluorophenethylamino)]-6-O-methyl-erythromycin A 11,12-(cyclic carbamate)] |

Reference: patent publication US5955440A, “Macrolide LHRH antagonists” (Abbott Laboratories, priority 1998, dated 1999)
